Source: patent publication US11911387B2, “Vasoprotective and cardioprotective antidiabetic therapy” (Boehringer Ingelheim International GmbH, priority 2010, dated 2024)
“Also recorded” adds a separate entry of the source. Marks after values point to notes of the source that are not given here. Blank lines part the entries; values can stand above or below the compound they belong to.

Columns and labels:
[1] = tested on: isolated aortic ring segments; experiment: Direct vasodilatory effects, isometric tension recording in isolated aortic ring segments; parameters: species or system rats; settings: cumulative concentrations 1 nM to 32 or 100 μM; versus DMSO
Procedure: FIGS. 9A and 9B show direct vasodilatory effects of gliptins. […] The data are mean±SEM of 12 (FIG. 9A) or 4 (FIG. 9B) aortic rings from 10 rats in total: p<0.05 vs. DMSO (solvent control); ^#p<0.05 vs. sita-/vildagliptin, and ^§, p<0.05 vs. saxa-/alogliptin.
Direct vasodilatory effects of gliptins are measured by the isometric tension technique in isolated aortic ring segments. […] In addition reactive oxygen and nitrogen species (RONS) formation is determined in isolated cardiac mitochondria and LPS or PDBu-triggered oxidative burst in whole blood.

[2] = tested on: T2DM patients on stable metformin; settings: for adjusted mean HbA1c change from baseline: PP population, linagliptin 5 mg/day, glimepiride mean dose 3 mg/day, added to metformin
[3] = tested on: peroxynitrite (authentic and Sin-1 derived); experiment: Direct antioxidant effect: peroxynitrite formation/-mediated nitration; type: biochemical
[4] = tested on: hydrogen peroxide/peroxidase system; experiment: Direct antioxidant effect: hydrogen peroxide/peroxidase mediated 1-electron-oxidation; type: biochemical
[5] = tested on: isolated human leukocytes (PMN); experiment: Oxidative burst (NADPH oxidase activation) in isolated human leukocytes (PMN); type: cell-based
Procedure: In FIG. 4, within each setting of inhibition of oxidative burst, the first bar from left refers to activation by LPS and the second bar refers to activation by Zymosan A.
In FIG. 6, within each setting of LPS stimulation, the first bar from left refers to w/o gliptin, the second bar refers to 1 μM Bl 1356, the third bar refers to 10 μM Bl 1356 and the fourth bar refers to 100 μM Bl 1356.

[6] = tested on: adhesion of human neutrophils to endothelial cells (EA.hy cells); experiment: Adhesion of LPS-stimulated human neutrophils to cultured endothelial cells; type: cell-based; settings: in the presence of LPS
nitrate tolerant rats = experiment: Rat model of nitroglycerin-induced nitrate tolerance, oral linagliptin; type: in vivo
Procedure: (§1) Direct vasodilatory effects of gliptins are measured by the isometric tension technique in isolated aortic ring segments. […]. In addition reactive oxygen and nitrogen species (RONS) formation is determined in isolated cardiac mitochondria and LPS or PDBu-triggered oxidative burst in whole blood. […].

septic rats (LPS) = experiment: LPS-induced septic shock in Wistar rats, linagliptin cotherapy; type: in vivo
Procedure: as §1

diabetic eNOS ko mice = experiment: Diabetic nephropathy in STZ-diabetic eNOS ko mice, 4 weeks treatment; type: in vivo; settings: STZ treated animals, linagliptin 3 mg/kg, telmisartan 1 mg/kg p.o.
Excerpt: Endothelial damage is characteristic for type 2 diabetes and contributes to the development of end stage kidney disease. Further, vascular endothelial NO synthase (eNOS) activity is altered in T2D and genetic abnormalities in the respected gene (NOS3) are associated with the development of advanced diabetic nephropathy (DN) in patients with type 1 and type 2 diabetes. The use of low dose STZ to induce T2D in this genetic phenotype (eNOS−/−) has been recently reported (Brosius et al, JASN 2009) to be a valid experimental model for DN. Eight week old eNOS −/− mice are rendered diabetic with intraperitoneal injections of streptozotocin (100 mg/kg per day for two consecutive days). Development of diabetes (defined by blood glucose>250 mg/dl) is verified one week after streptozotocin injection. No insulin is given because that could prevent the development of diabetic nephropathy. Mice are treated for 4 weeks with:
1) Non-diabetic eNOS ko control mice, placebo (natrosol) (n=14)
2) sham treated diabetic eNOS ko mice, placebo (natrosol) (n=17)
3) Telmisartan (p.o. 1 mg/kg) treated diabetic eNOS ko mice (n=17)
Renal function (s-creatinine, albuminuria) and blood glucose level are detected.

5/6N rats = experiment: Rat model of chronic renal insufficiency (5/6 nephrectomy), GLP-1 levels and cardiac mRNA; type: in vivo; settings: for active GLP-1 AUC(0-72 h) / active GLP-1 maximum plasma concentration (Cmax): linagliptin 3.3 mg/kg oral for 4 days
Excerpt: At the end of the study, heart tissue is harvested for mRNA analyses.

[7] = tested on: ischemia/reperfusion (I/R) rats; experiment: Myocardial ischemia/reperfusion in Wistar rats, linagliptin from 30 days before I/R; type: in vivo
[8] = tested on: diabetic eNOS knockout C57BL/6J mice; experiment: ARB-resistant diabetic nephropathy in diabetic eNOS knockout C57BL/6J mice, 12 weeks; type: in vivo; settings: for albuminuria (urinary albumin excretion per 24 h): telmisartan 1 mg/kg, linagliptin 3 mg/kg; for glomerulosclerosis in the kidney, histological score: compared with diabetic controls, p<0.05
Excerpt: Fourteen mice are used as non-diabetic controls. After 12 weeks, urine and blood are obtained and blood pressure measured.

NOD mice = experiment: Onset of diabetes and beta-cell mass in non-obese-diabetic (NOD) mice, 60 days; type: in vivo
Excerpt: Though reduced pancreatic T-cell migration and altered cytokine production is considered important players for the onset of insulinitis the exact mechanism and effects on the pancreatic cell pool is still incompletely understood.
Bi-weekly plasma samples are obtained to determine onset of diabetes (BG>11 mmol/l).

[9] = tested on: patients with type 2 diabetes
[10] = tested on: rats fed a high-fat diet (diet induced obesity); experiment: Diet induced obesity rats, body weight and MRS fat analysis; settings: rat, in vivo
[11] = Pharmacokinetics of BI 1356, multiple oral doses once daily for 12 days in patients with type 2 diabetes; settings: for feT, SS: steady state (Day 12); for feT, SS / fe0-24: gMean
[12] = tested on: patients with type 2 diabetes; experiment: Postprandial glucose excursions, safety and tolerability in patients with type 2 diabetes, multiple oral doses of BI 1356
2K1C-rats = experiment: Two-kidney-one clip reno-vascular hypertension (2K1C) rat model, systolic blood pressure; type: in vivo; settings: 3 months; telmisartan 10 mg/kg, linagliptin 89 ppm in chow
Excerpt: We hypothesize that glucose/energy supply is particularly important in the failing heart that is characterized by cardiac hypertrophy. Inadequate energy supply is considered as one of the most important steps from compensated to decompensated left ventricular hypertrophy resulting in heart failure. A classical model of hypertension induced left ventricular hypertrophy that results on the long run in left ventricular failure and pathological remodeling is the two-kidney-one clip reno-vascular hypertension (Goldblatt) model (2K1C model).
[…]. Non-invasive, systolic blood pressure is measured in all groups to the time points (1. before treatment; 2. after 1 weeks 3. after 4 weeks; 4. after 6 weeks 5. after 12 weeks; and 6. after 6 weeks of treatment with the respective compounds.

[13] = tested on: superoxide formation from xanthine oxidase; experiment: Direct antioxidant effect: superoxide formation from xanthine oxidase

Compound: Cn1c(=O)cc(N2CCC[C@@H](N)C2)n(Cc2ccccc2C#N)c1=O [alogliptin]
direct vasodilatory effect (induction of vasodilation), ranking [1]: directly followed by alogliptin and vildagliptin

patients with investigator-defined, drug-related hypoglycemia ([2]; human, in vivo, 2 years): 36.1%
Compound: CCC1=C(C)CN(C(=O)NCCc2ccc(S(=O)(=O)NC(=O)N[C@H]3CC[C@H](C)CC3)cc2)C1=O [glimepiride, reference compound]
adjusted mean HbA1c change from baseline ([2]; 2 years): −0.5%
body weight change ([2]; in vivo): +1.3 kg

Compound: CC#CCn1c(N2CCC[C@@H](N)C2)nc2c1c(=O)n(Cc1nc(C)c3ccccc3n1)c(=O)n2C [linagliptin]
suppression in response to peroxynitrite formation/-mediated nitration [3]: Minor (but significant) suppression
interference with 1-electron-oxidations by the hydrogen peroxide/peroxidase system [4]: most potent compound
PMN derived RONS signal, L-012 enhanced chemiluminescence ([5]; LPS 0.5, 5 and 50 μg/ml): suppresses the signal concentration-dependently
inhibition of oxidative burst ([5]; NADPH oxidase activation by LPS and zymosan A, compared with other gliptins): best inhibition
suppression of LPS or zymosan A-triggered oxidative burst, luminol/peroxidase enhanced chemiluminescence ([5]; versus nebivolol): as efficient as nebivolol
suppression of LPS or zymosan A-triggered oxidative burst, luminol/peroxidase enhanced chemiluminescence ([5]; versus other gliptins): much more efficient
leukocyte adhesion to endothelial cells [6]: suppresses leukocyte adhesion
cardiac mitochondrial ROS formation and whole blood LPS/zymosan A-triggered oxidative burst (nitrate tolerant rats; nitrate-tolerant rats): improved; also recorded: minor improvement
nitrate tolerance (nitrate tolerant rats; nitroglycerin treated rats): not altered
endothelial dysfunction (endothelium dependent relaxation) (nitrate tolerant rats; nitroglycerin treated rats, linagliptin 3-10 mg/kg/d by diet 7 d): significantly improved
body weight of the animals (nitrate tolerant rats; rat, in vivo): Neither nitroglycerin nor linagliptin treatment has effects
blood glucose levels (nitrate tolerant rats; slightly increased in the nitroglycerin group): normalized
endothelial dysfunction (endothelium-dependent relaxation) (septic rats (LPS); LPS treated rats): significantly improved
vascular function (Ach-, GTN-, and diethylamine NONOate-dependent relaxation) (septic rats (LPS); impaired by LPS): almost normalized
mitochondrial and whole blood (LPS, PDBu-stimulated) RONS production (septic rats (LPS); increased by LPS): improved
vascular oxidative stress (DHE) and markers of vascular inflammation (VCAM-1, Cox-2, NOS-2) (septic rats (LPS); increased by LPS): significantly improved
increase of plasma GLP-1 levels (septic rats (LPS); rat, in vivo): ~10 fold
direct vasodilatory effect (induction of vasodilation), ranking [1]: most potent compound
blood sugar versus placebo (diabetic eNOS ko mice): No significant differences
active GLP-1 AUC(0-72 h) (5/6N rats; 5/6N animals): 201 pg·h/mL
active GLP-1 maximum plasma concentration (Cmax) (5/6N rats; 5/6N animals): 6.36 ± 2.58 pg/mL
cardiac mRNA levels of TGF-β, TIMP-1, collagens 1α1 and 3α1 and BNP (5/6N rats; increased in 5/6N versus sham, all p<0.05): reduced or even normalized
increase of the AUC of GLP-1 (5/6N rats; rat model of renal failure): approximately twofold
active GLP-1 AUC(0-72 h) (5/6N rats; sham animals): 114 pg·h/mL
active GLP-1 maximum plasma concentration (Cmax) (5/6N rats; sham animals): 3.91 ± 1.86 pg/mL
proportion of infarcted tissue relative to the total area at risk ([7]; 3 mg/kg once daily from 30 days before I/R, p<0.001): −21%
absolute infarction size ([7]; 3 mg/kg once daily, p<0.05): −18%
isovolumetric contractility index dP/dTmin ([7]; after 60 days): −4957±73 mmHg/s
glucagon-like peptide-1 (GLP-1) levels increased ([7]; p<0.0001): 18 fold
plasma osteopontin levels ([8]; 12 weeks): significantly lower
albuminuria (urinary albumin excretion per 24 h) ([8]; 12 weeks): 120.8±37.7 μg/24 h
glomerulosclerosis in the kidney, histological score [8]: 2.1+/−0.0
incidence of diabetes at the end of the study period (NOD mice; diet corresponding to 3-10 mg/kg p.o., 60 days, p=0.021): 9 out of 30
active plasma GLP-1 at termination (NOD mice; mouse, in vivo): higher
beta cell mass (NOD mice; p<0.01): 0.48 ± 0.09 mg
adjusted mean HbA1c change from baseline ([2]; 2 years): −0.4%
patients with investigator-defined, drug-related hypoglycemia ([2]; human, in vivo, 2 years): 7.5%
relative risk for the combined CV endpoint (RR) ([2]; human, in vivo, 2 years): 0.50
body weight change ([2]; in vivo): -1.4 kg
body weight, adjusted mean difference ([2]; in vivo): -2.7 kg
mean between-group difference in HbA1c change ([2]; linagliptin vs glimepiride, p=0.0001 for noninferiority): 0.17%
Primary CV endpoint, incidence rate/1000 pt-yr ([9]; in vivo): 5.3 /1000 pt-yr
All adjudicated CV events, Hazard ratio (95% CI) ([9]; linagliptin vs comparator): 0.55 (0.33, 0.94)*
FDA-custom MACE, Hazard ratio (95% CI) ([9]; linagliptin vs comparator): 0.34 (0.15, 0.75)*
Hospitalization for UAP, Hazard ratio (95% CI) ([9]; linagliptin vs comparator): 0.24 (0.02, 2.34)
Primary CV endpoint, Hazard ratio (Cox proportional model) (95% CI) ([9]; linagliptin vs comparator): 0.34 (0.16, 0.70)*
Transient ischemic attack, Hazard ratio (95% CI) ([9]; linagliptin vs comparator): 0.17 (0.02, 1.53)
Primary CV endpoint, % ([9]; n = 3319): 0.3%
All adjudicated CV events, incidence rate/1000 pt-yr ([9]; secondary endpoint): 12.6 /1000 pt-yr
FDA-custom MACE, incidence rate/1000 pt-yr ([9]; secondary endpoint): 4.3 /1000 pt-yr
Hospitalization for UAP, incidence rate/1000 pt-yr ([9]; tertiary endpoint): 0.5 /1000 pt-yr
Non-fatal MI, incidence rate/1000 pt-yr ([9]; tertiary endpoint): 2.9 /1000 pt-yr
Non-fatal stroke, incidence rate/1000 pt-yr ([9]; tertiary endpoint): 1.0 /1000 pt-yr
Transient ischemic attack, incidence rate/1000 pt-yr ([9]; tertiary endpoint): 0.5 /1000 pt-yr
steatosis, inflammation and fibrosis in the liver, histological scoring [10]: reduction
feT, SS ([11]; 1 mg once daily oral): 3.34%
fe0-24 ([11]; 2.5 mg once daily oral): 0.139%
feT, SS ([11]; 2.5 mg once daily oral): 3.06%
fe0-24 ([11]; 5 mg once daily oral): 0.453%
feT, SS ([11]; 5 mg once daily oral): 6.27%
fe0-24 ([11]; 10 mg once daily oral): 0.919%
feT, SS ([11]; 10 mg once daily oral): 3.22%
mean accumulation ratio RA,AUC ([11]; doses above 1 mg once daily): ≤ 1.4
route of excretion ([11]; human, in vivo): primarily excreted unchanged via the bile
excreted via the kidney ([11]; therapeutic oral dose levels): < 7 % of the administered oral dose
decrease in 2 h postprandial blood glucose excursions ([12]; already on Day 1, doses ≥2.5 mg): 80%
safety and tolerability ([12]; people with type 2 diabetes): placebo-like safety and tolerability

Compound: N[C@@H](CC(=O)N1CCn2c(nnc2C(F)(F)F)C1)Cc1cc(F)c(F)cc1F [sitagliptin]
direct vasodilatory effect (induction of vasodilation), ranking [1]: not more efficient in the induction of vasodilation than the solvent alone control

Compound: CCCc1nc2c(C)cc(-c3nc4ccccc4n3C)cc2n1Cc1ccc(-c2ccccc2C(=O)O)cc1 [telmisartan]
blood sugar versus placebo (diabetic eNOS ko mice): No significant differences
systolic blood pressure (RR systolic) (2K1C-rats): always significant versus vehicle treated animals
albuminuria, significance compared with diabetic controls ([8]; 12 weeks): not statistically significant
blood pressure ([8]; 12 weeks, mean±SEM): 111.2±2.3 mmHg
blood pressure reduction vs diabetic controls ([8]; 12 weeks, p=0.071): 5.9 mmHg
albuminuria (urinary albumin excretion per 24 h) ([8]; 12 weeks): 97.8±26.4 μg/24 h
glomerulosclerosis in the kidney, histological score [8]: not significantly different
plasma neutrophil gelatinase-associated lipocalin (NGAL) levels ([8]; compared with untreated diabetic mice): significantly increased

Compound: N#C[C@@H]1CCCN1C(=O)CNC12CC3CC(CC(O)(C3)C1)C2 [vildagliptin]
direct vasodilatory effect (induction of vasodilation), ranking [1]: directly followed by alogliptin and vildagliptin
suppression of superoxide formation [13]: Minor (but significant) suppression
